Results on 6 compounds are retold here after patent US20240024379A1, “EXTRACT OF BACTERIA OF THE GENUS SPHINGOMONAS” (L’OREAL, priority 2020, published 2024).

Values joined by “and” are separate entries in the source; they are usually repeats but may differ in a detail not shown here. Equal values may be shown once.

What all share (type): cell-based
One experiment has as its target T1, hTLR2-1 (Homo sapiens, UniProt O60603+Q15399).
T1 construct: host or cells: HEK-293
Nature of the experiment: TLR reporter (SEAP/NFkB) test on HEK293 cell line with hTLR2-1. As to the method:
(§1) The extract and the controls are tested in duplicate on recombinant HEK-293 cell lines. These cell lines functionally over-express human TLR proteins as well as a reporter gene that is a secreted alkaline phosphatase (SEAP). The production of this reporter gene is governed by an NFkB inducible promoter. The results of activation of the TLR reporters are given in the form of optical density (OD) values.
(§2) CU-T12-9 and FSL-1 are used on the cells expressing hTLR2 to respectively assess the TLR1/TLR2 and TLR2/TLR6 activities.
(§3) […] CU-T12-9 is tested at 200 nM and 300 nM.
20 μl of the extract have been used to stimulate the reporter hTLR cell line in 200 μl of reaction volume. For the dose-response on the HEK-Blue-hTLR5 cell lines, the liquid extract obtained according to Example 1 has been tested in duplicate, at the following concentrations: 1000 μg/ml, 500 μg/ml, 250 μg/ml, 125 μg/ml, 62.5 μg/ml, 31.5 μg/ml. […]

The next experiment has as its target T2, hTLR2-6 (Homo sapiens, UniProt O60603+Q9Y2C9).
T2 construct: host or cells: HEK-293
Nature of the experiment: TLR reporter (SEAP/NFkB) test on HEK293 cell line with hTLR2-6. As to the method:
as §1, §2, §3
(§4) 20 μl of the extract have been used to stimulate the reporter hTLR cell line in 200 μl of reaction volume. For the dose-response on the HEK-Blue-hTLR5 cell lines, the liquid extract obtained according to Example 1 has been tested in duplicate, at the following concentrations: 1000 μg/ml, 500 μg/ml, 250 μg/ml, 125 μg/ml, 62.5 μg/ml, 31.5 μg/ml. For the TLR1/2 and/or TLR2/6 specificity, the liquid extract obtained according to Example 1 has been tested in duplicate at the following concentrations: 100 μg/ml, 30 μg/ml and 10 μg/ml.

The next experiment addresses T3, hTLR2 (Homo sapiens, UniProt O60603).
T3 construct: host or cells: HEK-293
Nature of the experiment: TLR reporter (SEAP/NFkB) test on HEK293 cell line with hTLR2. The protocol:
as §1, §2, §3, §4

Experiment [1] concerns IgE production by human B lymphocytes. The experiment can be described thus: IgE production by human B lymphocytes stimulated with anti-CD40 and IL-4, ELISA. The note with it: Anti CD-40 10 μg/ml + IL-4 10 ng/ml, 14 days; for IgE: single replicates. The protocol: In the study, the effect of the extract has been assessed on the IgE production by purified human B lymphocytes (isolation of the CD19^+ lymphocytes from mononuclear cells of the peripheral blood). More specifically, the IgE production has been induced by the stimulation of the B lymphocytes with the combination of anti-CD40 antibody and of IL-4. After 14 days of incubation, the amount of IgE released in the culture supernatants has been quantified using a specific ELISA kit. Concomitantly with the tested extract, 3 other molecules have also been assessed in this test. the reference standard CpG-ODN 2006 (a TLR9 ligand), as well as IFN-γ and PGE2 have been tested as reference compounds.
The B lymphocytes CD19^+ have been isolated, sown in 24-well plates and incubated over one night in the culture medium. Afterwards, the compounds to be tested, tested alone or in combination, and the reference compounds have been added, or not (controls), and the cells have been pre-incubated for 2 hours. Afterwards, the inducer (a CD40+IL-4 combination) has been added, or not (unstimulated control) and the treatments with the test or the reference compounds have been repeated. Afterwards, the cells have been incubated for 14 days at a final density of 1.7×10^6 cells/ml). […]
The amount of IgE released in the culture supernatants has been measured using a specific ELISA kit according to the instructions of the supplier.
(In an ELISA, binding on a coated surface is turned into a signal by an enzyme label.)

Another experiment has as its system Cornifelin. The experiment can be described thus: Gene expression by RT-qPCR in normal human epidermal keratinocytes, Cornifelin. The note with it: NHEK, 24 hours; 1.00E−07 M, DMSO. The protocol: (§5) Normal human epidermal keratinocytes (NHEK) have been sown in 48-well culture plates and then cultured in a culture medium for 3 days at 37° C. and 5% of CO2 with a renewal of the culture medium after first 24 hours of culture. At the end of the incubation, the culture medium has been replaced with a test medium (supplemented with 1.5 mM of CaCl2)) containing no (control) or containing the compounds to be tested, and the cells has then been incubated for 24 hours. All conditions have been carried out in duplicate. At the end of the treatments, the culture media have been eliminated and the cells have been rinsed twice with PBS (without CaCl2, without MgCl2). Afterwards, the total RNA has been isolated using an extraction kit. The quantification of RNA and its quality control have been analyzed by means of Labchip GX (Perkin Elmer). The expression of the selected transcripts has been analyzed by quantitative PCR in two steps. First of all, the cDNAs have been transcribed in the opposite direction from the RNAs. Afterwards, the quantitative PCR experiments have been carried out using a real-time PCR system. […] The RNAs are extracted, quantified and their quality is checked before performing their reverse transcription into cDNA. Finally, an RT-qPCR is carried out for each experimental condition in order to quantify the expression of the set of selected genes.

Another experiment relates to Zonula Occludens-1. The experiment can be described thus: Gene expression by RT-qPCR in normal human epidermal keratinocytes, Zonula Occludens-1. As to conditions: NHEK, 24 hours; 1.00E−07 M, DMSO. As to the method: as §5
Another experiment relates to Claudin 1. Nature of the experiment: Gene expression by RT-qPCR in normal human epidermal keratinocytes, Claudin 1. As to conditions: NHEK, 24 hours; 1.00E−07 M, DMSO. As to the method: as §5
(In general: Quantitative PCR measures a nucleic acid by following its amplification.)

T3 sequence (O60603 21-784): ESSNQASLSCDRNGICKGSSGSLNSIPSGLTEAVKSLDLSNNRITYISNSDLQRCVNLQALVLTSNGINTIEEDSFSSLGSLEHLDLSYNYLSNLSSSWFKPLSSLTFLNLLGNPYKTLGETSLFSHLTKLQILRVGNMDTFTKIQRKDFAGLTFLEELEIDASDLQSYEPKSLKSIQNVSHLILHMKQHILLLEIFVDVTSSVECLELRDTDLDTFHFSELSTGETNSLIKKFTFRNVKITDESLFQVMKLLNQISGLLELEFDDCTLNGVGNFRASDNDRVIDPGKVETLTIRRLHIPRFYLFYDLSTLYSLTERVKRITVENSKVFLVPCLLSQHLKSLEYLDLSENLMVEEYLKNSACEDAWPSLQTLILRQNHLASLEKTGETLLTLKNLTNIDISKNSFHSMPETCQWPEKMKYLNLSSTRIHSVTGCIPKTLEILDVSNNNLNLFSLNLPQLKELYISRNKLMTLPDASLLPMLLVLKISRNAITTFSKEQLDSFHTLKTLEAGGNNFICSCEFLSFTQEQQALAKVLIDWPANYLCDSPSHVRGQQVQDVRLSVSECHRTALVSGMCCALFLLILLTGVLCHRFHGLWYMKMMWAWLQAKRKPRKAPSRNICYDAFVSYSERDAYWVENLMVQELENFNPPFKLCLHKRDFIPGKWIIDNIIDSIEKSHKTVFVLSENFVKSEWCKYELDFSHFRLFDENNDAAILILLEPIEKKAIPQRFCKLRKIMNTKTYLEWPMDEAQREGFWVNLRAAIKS
T1 sequence (O60603 21-784): as above
T1 sequence (Q15399 25-786): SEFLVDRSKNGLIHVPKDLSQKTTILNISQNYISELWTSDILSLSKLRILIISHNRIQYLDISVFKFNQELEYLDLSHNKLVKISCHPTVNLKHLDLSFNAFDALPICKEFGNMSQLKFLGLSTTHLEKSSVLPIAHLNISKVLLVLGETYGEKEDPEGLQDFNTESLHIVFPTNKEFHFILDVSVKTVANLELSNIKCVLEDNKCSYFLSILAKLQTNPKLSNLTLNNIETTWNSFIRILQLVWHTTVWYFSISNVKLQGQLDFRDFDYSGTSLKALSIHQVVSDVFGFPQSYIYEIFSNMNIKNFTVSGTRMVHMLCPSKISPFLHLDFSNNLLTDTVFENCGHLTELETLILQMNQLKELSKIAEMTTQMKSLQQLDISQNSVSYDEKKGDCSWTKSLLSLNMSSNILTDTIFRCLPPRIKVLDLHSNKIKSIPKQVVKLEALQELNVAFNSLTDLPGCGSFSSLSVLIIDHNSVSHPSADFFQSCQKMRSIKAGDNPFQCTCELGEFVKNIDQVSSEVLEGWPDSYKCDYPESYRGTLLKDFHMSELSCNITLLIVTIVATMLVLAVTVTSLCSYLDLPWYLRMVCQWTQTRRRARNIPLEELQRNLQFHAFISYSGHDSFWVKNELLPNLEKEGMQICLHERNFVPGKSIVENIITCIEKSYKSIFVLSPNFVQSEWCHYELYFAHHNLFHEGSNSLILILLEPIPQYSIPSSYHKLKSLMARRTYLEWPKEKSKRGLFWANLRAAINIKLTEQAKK
T2 sequence (O60603 21-784): as the sequence (O60603 21-784) above
T2 sequence (Q9Y2C9 32-796): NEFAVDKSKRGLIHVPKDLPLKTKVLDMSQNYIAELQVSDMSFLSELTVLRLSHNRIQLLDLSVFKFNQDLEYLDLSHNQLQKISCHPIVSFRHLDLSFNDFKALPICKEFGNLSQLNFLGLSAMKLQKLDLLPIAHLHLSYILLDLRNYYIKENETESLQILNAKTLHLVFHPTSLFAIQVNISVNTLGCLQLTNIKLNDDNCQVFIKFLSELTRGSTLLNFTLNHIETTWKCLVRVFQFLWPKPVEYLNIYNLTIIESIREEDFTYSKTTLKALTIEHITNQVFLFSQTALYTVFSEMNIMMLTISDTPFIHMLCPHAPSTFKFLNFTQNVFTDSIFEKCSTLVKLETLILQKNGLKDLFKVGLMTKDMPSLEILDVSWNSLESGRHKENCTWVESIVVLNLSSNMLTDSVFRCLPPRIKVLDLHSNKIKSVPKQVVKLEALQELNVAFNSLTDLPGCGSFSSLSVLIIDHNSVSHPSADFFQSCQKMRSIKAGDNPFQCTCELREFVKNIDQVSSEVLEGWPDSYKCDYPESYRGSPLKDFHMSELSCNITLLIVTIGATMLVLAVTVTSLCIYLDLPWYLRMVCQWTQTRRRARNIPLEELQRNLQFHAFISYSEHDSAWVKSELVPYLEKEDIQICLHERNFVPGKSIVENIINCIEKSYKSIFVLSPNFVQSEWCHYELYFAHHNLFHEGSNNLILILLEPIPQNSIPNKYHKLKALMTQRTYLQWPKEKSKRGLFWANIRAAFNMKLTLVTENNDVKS

On to `CNc1ccc([N+](=O)[O-])cc1-n1cnc(-c2ccc(C(F)(F)F)cc2)c1` [CUT12-9], for which the DO at hTLR2-1 (200 nM) turned out to be 1.474; at hTLR2-1 (300 nM), 1.667; on hTLR2-6 (200 nM), 0.029; at hTLR2-6 (300 nM), 0.024; at hTLR2 (200 nM), 3.066; at hTLR2 (300 nM), 3.227.
As to CpG-ODN 2006, in experiment [1] (3 μM), the “IgE % of the stimulated control” value was less than 3%, the “IgE Mean” value is less than 123 pg/mL and the IgE is less than 123 pg/mL. For the same compound, the “IgE % of the stimulated control” value in experiment [1] (3 μM, listed as CpG-ODN2006) was less than 3%.
Regarding FSL1, the DO on hTLR2-1 (10 pg/ml) came to 0.027; on hTLR2-1 (30 pg/ml), 0.013; on hTLR2-6 (10 pg/ml), 1.373; on hTLR2-6 (30 pg/ml) it was 2.047; at hTLR2 (10 pg/ml), 1.727; at hTLR2 (30 pg/ml), 2.174.
For the compound `CCCCC[C@H](O)/C=C/[C@H]1[C@H](O)CC(=O)[C@@H]1C/C=C\CCCC(=O)O` [PGE2], in experiment [1] (1 μM), the “IgE % of the stimulated control” value is recorded as 58%; the “IgE Mean” value came to 2126 pg/mL; the IgE is 2942 pg/mL and 1495 pg/mL and 1941 pg/mL.
In the case of “IFN-γ: reference compound, R&D Systems, ref. 285-IF-100/CF”, in experiment [1] (10 ng/ml), the “IgE % of the stimulated control” value is on record as 20%; the “IgE Mean” value was 738 pg/mL; the IgE was 1012 pg/mL and 166 pg/mL and 1036 pg/mL.
In the case of `CC1=C(/C=C/C(C)=C/C=C/C(C)=C/CO)C(C)(C)CCC1` [Retinol], the “Average expression of the genes, Cornifelin” value in the experiment on Cornifelin was found to be 0.77. For the same compound, in the experiment on Zonula Occludens-1, the “Average expression of the genes, Zonula Occludens-1” value is 1.61. The “Average expression of the genes, Claudin 1” value in the experiment on Claudin 1 stood at 0.63.
